“Also recorded” adds a separate entry of the source.
Key:
[1] = tested on: RUNX2 (DN-RUNX2) in MPCs infected with Ad-NR1H3; assay: DN-RUNX2 assay (AP activity in MPCs); type: cell-based, human; details: Ad-NR1H3 in the presence of T0901317, Ad-DN-RUNX2 vs Ad-luciferase, 6 days post infection
Experimental: MPCs are seeded at 1000 cells/well in a 384 well plate and infected the next day with adenoviruses encoding hCAR (MOI 250), Ad-BMP2 (MOIs 6000, 2000, 666) and one of Ad-DN-RUNX2 or Ad-luciferase (MOIs 2000 or 666). Alkaline phosphatase activity is read 6 days post infection.
MPCs are seeded at 1000 cells/well in a 384 well plate and are infected the next day with adenoviruses encoding hCAR (MOI 250), Ad-BMP2, Ad-ESRRG, Ad-NR5A2, Ad-NR1H3 (MOIs 6000, 2000, 666) and one of Ad-DN-RUNX2 or Ad-luciferase (MOI 1000 or MOIs 2000 and 666) (see FIG. 19 (C)). Alkaline phosphatase activity is read 6 days post infection and raw data are analysed.

primary human MPCs = assay: Mineralization assay (Alizarin RedS / Von Kossa); type: cell-based; details: MPCs with NR1H3 and T0901317
Experimental: On day one, primary human MPCs are seeded in a 6 well plate (Costar or Nunc) at a density of 50,000 to 250,000 cells per well, typically at 100,000 cells per well. MPCs are co-infected one day later with AdC15-hCAR (MOI 750) and Ad-control (eGFP or BMP2) or hit-virus (Ad5) (at MOIs between 250 and 20,000, typically at MOIs 5000 and 2500). For Ad-GPCR or Ad-NHR experiments, cells can additionally be treated with specific ligands. These are added at the EC50 concentration and at concentrations 5-10 times higher and lower. Ligands are added 2-3 times per week. Medium supplemented with 100 μg/ml L-ascorbate and 10 mM beta-glycerophosphate, is refreshed 2 times a week. 20 to 30 days after the start of the experiment, cells are stained with Von Kossa stain or with Alizarin RedS stain.
The Alizarin RedS staining is carried out as follows: cells are washed once with PBS, fixed with 10% paraformaldehyde for 45 minutes at 4° C., and washed 2 times with PBS. Cells are incubated with 40 mM aqueous Alizarin RedS solution, pH 4.1-4.3 for 10 minutes followed by 5 washes with distilled water. Staining is evaluated and photographed using white light.

[2] = tested on: osteogenic markers mRNA in MPCs infected with Ad-NR1H3; assay: Osteogenic marker mRNA levels (rtRT-PCR) in MPCs infected with Ad-NR1H3 + T0901317; type: cell-based, human; details: Ad-NR1H3 + T0901317 (1 μM)
Experimental: Osteogenic differentiation of MPCs into osteoblasts is accompanied by the up-regulation of osteogenic proteins. […] The MPCs that are used in this study are profiled for the up-regulation of a limited set of osteogenic markers by BMP2. Markers that show differential expression for BMP2 are subsequently tested against mRNA derived from Ad-NR5A2 infected cells or derived from Ad-NR1H3+T0901317 treated cells. 100,000 MPCs are seeded in each well of a 6 well plate in 2 ml MPC medium, containing 10% FCS. The next day, after incubation at 37° C., 10% CO2 in a humidified incubator, cells are co-infected with AdC15-hCAR (final MOI of 750) and Ad-NR5A2, Ad-NR1H3+T0901317 (1 μM) or Ad-BMP2 (positive control) or Ad-eGFP or Ad-luciferase as negative controls (final MOIs of 1250 and 2500). Cells are incubated at 37° C., 10% CO2 in a humidified incubator for a further six days unless cells are already harvested for RNA isolation. Virus is removed and replaced by 2 ml fresh OS medium (proprietary medium containing 10% FCS). Over the next 3 weeks, medium is refreshed 3 times per 2 weeks. Every other time, medium is refreshed half or completely. Monolayers are harvested at several time points (see FIG. 15), total RNA is harvested and quantified and rtRT-PCRs are run as follows: monolayers are washed with ice cold PBS and harvested by adding SV RNA Lysis Buffer. Total RNA is prepared using the SV Total RNA isolation System (Promega, Cat # Z3100). RNA concentration is measured with the Ribogreen RNA Quantification kit (Molecular Probes, Leiden, The Netherlands, Cat No. R-11490). cDNA synthesis is performed using 20 ng total RNA per reaction using the TaqMan Universal PCR Master Mix, No AmpErase UNG, kit (Applied Biosystems, Warrington, UK, Part number 4324018). For each reverse transcriptase (RT) reaction a minus-RT reaction (negative control: no enzyme included in the reaction) is performed. The real-time reverse transcriptase (rtRT)-PCR reaction is performed with gene specific primers on both cDNA and minus-RT samples, using the SYBR Green PCR Master Mix (Applied Biosystems, Warrington, UK, Part number 4309155). Primers are quality controlled by performing PCR reactions on human genomic DNA and on plasmids containing the cDNA encoded by the gene studied if available. If the quality is unsatisfactory, additional primers are designed or validated primer sets are purchased (ABI). For the normalization of the expression levels a RT-PCR reaction is performed on human β-actin using the Human β-actin kit (Applied Biosystems, Warrington, UK, Part number 4310881E). The following program is run on a real-time PCR apparatus (ABI PRISM 7000 Sequence Detection System): 10 min at 25° C., 30 min at 48° C., 5 min at 95° C.
Expression levels for osteogenic marker genes are first normalized for beta-actin levels. The resulting data for Ad-BMP2, Ad-NR5A2 and Ad-NR1H3+T0901317 (1 μM) samples are then compared to those of Ad-eGFP or Ad-luciferase negative control samples, harvested at the same time points, for cells infected at the same MOI.

[3] = up-regulated if 4-fold higher than negative control, one or more time points

O=S(=O)(c1ccccc1)N(CC(F)(F)F)c1ccc(C(O)(C(F)(F)F)C(F)(F)F)cc1 [T0901317, N-(2,2,2-trifluoroethyl)-N-[4-[2,2,2-trifluoro-1-hydroxy-1-(trifluoromethyl)ethyl]phenyl]-benzenesulfonamide]
up-regulation of AP activity upon overexpression of DN-RUNX2 [1]: overexpression of DN-RUNX2 significantly reduces the up-regulation of AP activity; also recorded: DN-RUNX2 interferes with induction of AP activity
mineralization (primary human MPCs): score well
BAP mRNA expression [2, 3]: up-regulated expression
PTHR1 mRNA expression [2, 3]: up-regulated expression
RANKL mRNA expression [2, 3]: up-regulated expression
aromatase mRNA expression [2, 3]: up-regulated expression
osteopontin mRNA expression [2, 3]: up-regulated expression
mRNA levels of osteogenic markers ([2]; MPCs): up-regulate mRNA levels of osteogenic markers
